In brackets after ≈: the same amount, converted by molar mass.
Legend:
Test in all cases: in vitro antibacterial evaluation, MIC by broth dilution
Format in all cases: cell-based
Enterococcus sp. = details: broth dilution, 18 hours at 35° C.; for MIC Enterococcus faecalis (ATCC 29212): strain ATCC 29212; for MIC Enterococcus faecalis (GC 2242): strain GC 2242; for MIC Enterococcus faecium (GC 2243): strain GC 2243; for MIC Enterococcus faecalis (GC 2691): strain GC 2691; for MIC Enterococcus faecalis (GC 3059): strain GC 3059; for MIC Enterococcus faecalis (GC 4552): strain GC 4552; for MIC Enterococcus faecalis (GC 4553): strain GC 4553; for MIC Enterococcus faecalis (GC 4554): strain GC 4554; for MIC Enterococcus faecium (GC 4556): strain GC 4556; for MIC Enterococcus faecium (GC 4557): strain GC 4557; for MIC Enterococcus avium (GC 4558): strain GC 4558; for MIC Enterococcus faecalis (GC 6189): strain GC 6189
Outline: (§1)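 Step 1: dilute antibiotic across 64-0.06 μg/mL in Muller-Hinton II […]. Step 2: inoculate at 5×10^5 CFU/mL.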

Escherichia coli = test system: Escherichia coli
Outline: as §1

Staphylococcus sp. = details: broth dilution, 18 hours at 35° C.; for MIC Staphylococcus aureus (GC 1131): strain GC 1131
Outline: as §1

Streptococcus sp. = details: broth dilution, 18 hours at 35° C.; for MIC Streptococcus pneumoniae (ATCC 6301): strain ATCC 6301; for MIC Streptococcus pneumoniae (GC 1894): strain GC 1894; for MIC Streptococcus pyogenes (GC 4563): strain GC 4563; for MIC Streptococcus agalactiae (GC 4564): strain GC 4564; for MIC Streptococcus pneumoniae (GC 4565): strain GC 4565
Outline: as §1

- MIC Enterococcus faecalis (ATCC 29212) (Enterococcus sp.; inoculum 5×10^5 CFU/mL): 8 µg/mL (≈ 5.21 µM)
- MIC Enterococcus faecalis (GC 2242) (Enterococcus sp.; inoculum 5×10^5 CFU/mL): 8 µg/mL (≈ 5.21 µM)
- MIC Enterococcus faecium (GC 2243) (Enterococcus sp.; inoculum 5×10^5 CFU/mL): 2 µg/mL (≈ 1.3 µM)
- MIC Enterococcus faecalis (GC 2691) (Enterococcus sp.; inoculum 5×10^5 CFU/mL): 2 µg/mL (≈ 1.3 µM)
- MIC Enterococcus faecalis (GC 3059) (Enterococcus sp.; inoculum 5×10^5 CFU/mL): 4 µg/mL (≈ 2.6 µM)
- MIC Enterococcus faecalis (GC 4552) (Enterococcus sp.; inoculum 5×10^5 CFU/mL): 8 µg/mL (≈ 5.21 µM)
- MIC Enterococcus faecalis (GC 4553) (Enterococcus sp.; inoculum 5×10^5 CFU/mL): 4 µg/mL (≈ 2.6 µM)
- MIC Enterococcus faecalis (GC 4554) (Enterococcus sp.; inoculum 5×10^5 CFU/mL): 4 µg/mL (≈ 2.6 µM)
- MIC Enterococcus faecium (GC 4556) (Enterococcus sp.; inoculum 5×10^5 CFU/mL): 8 µg/mL (≈ 5.21 µM)
- MIC Enterococcus faecium (GC 4557) (Enterococcus sp.; inoculum 5×10^5 CFU/mL): 4 µg/mL (≈ 2.6 µM)
- MIC Enterococcus avium (GC 4558) (Enterococcus sp.; inoculum 5×10^5 CFU/mL): 2 µg/mL (≈ 1.3 µM)
- MIC Enterococcus faecalis (GC 6189) (Enterococcus sp.; inoculum 5×10^5 CFU/mL): 2 µg/mL (≈ 1.3 µM)
- MIC Enterococcus faecalis (ATCC 29212) (Enterococcus sp.): 8 µg/mL (≈ 5.21 µM)
- MIC Enterococcus faecalis (GC 2242) (Enterococcus sp.): 8 µg/mL (≈ 5.21 µM)
- MIC Enterococcus faecium (GC 2243) (Enterococcus sp.): 2 µg/mL (≈ 1.3 µM)
- MIC Enterococcus faecalis (GC 2691) (Enterococcus sp.): 2 µg/mL (≈ 1.3 µM)
- MIC Enterococcus faecalis (GC 3059) (Enterococcus sp.): 4 µg/mL (≈ 2.6 µM)
- MIC Enterococcus faecalis (GC 4552) (Enterococcus sp.): 8 µg/mL (≈ 5.21 µM)
- MIC Enterococcus faecalis (GC 4553) (Enterococcus sp.): 4 µg/mL (≈ 2.6 µM)
- MIC Enterococcus faecalis (GC 4554) (Enterococcus sp.): 4 µg/mL (≈ 2.6 µM)
- MIC Enterococcus faecium (GC 4556) (Enterococcus sp.): 8 µg/mL (≈ 5.21 µM)
- MIC Enterococcus faecium (GC 4557) (Enterococcus sp.): 4 µg/mL (≈ 2.6 µM)
- MIC Enterococcus avium (GC 4558) (Enterococcus sp.): 2 µg/mL (≈ 1.3 µM)
- MIC Enterococcus faecalis (GC 6189) (Enterococcus sp.): 2 µg/mL (≈ 1.3 µM)
- MIC Escherichia coli (ATCC 25922) (Escherichia coli; strain ATCC 25922, 18 hours at 35° C.): >64 µg/mL
- MIC Escherichia coli (GC 4559) (Escherichia coli; strain GC 4559, 18 hours at 35° C.): >64 µg/mL
- MIC Escherichia coli (GC 4560) (Escherichia coli; strain GC 4560, 18 hours at 35° C.): 4 µg/mL (≈ 2.6 µM)
- MIC Staphylococcus aureus (GC 1131) (Staphylococcus sp.; inoculum 5×10^5 CFU/mL): 8 µg/mL (≈ 5.21 µM)
- MIC Staphylococcus aureus (ATCC 29213) (Staphylococcus sp.; strain ATCC 29213): 4 µg/mL (≈ 2.6 µM)
- MIC Staphylococcus aureus (GC 1131) (Staphylococcus sp.): 8 µg/mL (≈ 5.21 µM)
- MIC Staphylococcus aureus (GC 3051) (Staphylococcus sp.; strain GC 3051): 2 µg/mL (≈ 1.3 µM)
- MIC Staphylococcus aureus (GC 3053) (Staphylococcus sp.; strain GC 3053): 2 µg/mL (≈ 1.3 µM)
- MIC Staphylococcus aureus (GC 4541) (Staphylococcus sp.; strain GC 4541): 8 µg/mL (≈ 5.21 µM)
- MIC Staphylococcus aureus (GC 4542) (Staphylococcus sp.; strain GC 4542): 4 µg/mL (≈ 2.6 µM)
- MIC Staphylococcus aureus (GC 4544) (Staphylococcus sp.; strain GC 4544): 4 µg/mL (≈ 2.6 µM)
- MIC Staphylococcus aureus (GC 4545) (Staphylococcus sp.; strain GC 4545): 4 µg/mL (≈ 2.6 µM)
- MIC Staphylococcus aureus-SMITH (GC 4543) (Staphylococcus sp.; strain GC 4543): 4 µg/mL (≈ 2.6 µM)
- MIC Coagulase Negative Staphylococcus (GC 4547) (Staphylococcus sp.; strain GC 4547): 4 µg/mL (≈ 2.6 µM)
- MIC Coagulase Negative Staphylococcus (GC 4548) (Staphylococcus sp.; strain GC 4548): 2 µg/mL (≈ 1.3 µM)
- MIC Coagulase Negative Staphylococcus (GC 4549) (Staphylococcus sp.; strain GC 4549): 4 µg/mL (≈ 2.6 µM)
- MIC Coagulase Negative Staphylococcus (GC 4551) (Staphylococcus sp.; strain GC 4551): 4 µg/mL (≈ 2.6 µM)
- MIC Coagulase Negative Staphylococcus (GC 6257) (Staphylococcus sp.; strain GC 6257): 2 µg/mL (≈ 1.3 µM)
- MIC Streptococcus pneumoniae (ATCC 6301) (Streptococcus sp.; inoculum 5×10^5 CFU/mL): <0.06 µg/mL
- MIC Streptococcus pneumoniae (GC 1894) (Streptococcus sp.; inoculum 5×10^5 CFU/mL): <0.06 µg/mL
- MIC Streptococcus pyogenes (GC 4563) (Streptococcus sp.; inoculum 5×10^5 CFU/mL): <0.06 µg/mL
- MIC Streptococcus agalactiae (GC 4564) (Streptococcus sp.; inoculum 5×10^5 CFU/mL): <0.06 µg/mL
- MIC Streptococcus pneumoniae (GC 4565) (Streptococcus sp.; inoculum 5×10^5 CFU/mL): <0.06 µg/mL
- MIC Streptococcus pneumoniae (ATCC 6301) (Streptococcus sp.): <0.06 µg/mL
- MIC Streptococcus pneumoniae (GC 1894) (Streptococcus sp.): <0.06 µg/mL
- MIC Streptococcus pyogenes (GC 4563) (Streptococcus sp.): <0.06 µg/mL
- MIC Streptococcus agalactiae (GC 4564) (Streptococcus sp.): <0.06 µg/mL
- MIC Streptococcus pneumoniae (GC 4565) (Streptococcus sp.): <0.06 µg/mL
SMILES: CC(C)=CCCC(C)=CCOc1ccc(C2OCC3OC(OC4C(CO)OC(Oc5ccc(CC6NC(=O)C(C(C)c7ccccc7)NC(=O)CNC(=O)C(CO)NC(=O)C(C(O)C7CNC(=N)N7C7OC(CO)C(O)C(O)C7O)NC(=O)C(C(O)C7CNC(=N)N7)NC6=O)cc5)C(O)C4O)C(O)C(O)C3O2)cc1 (centres unmarked) [Example 183]
- MIC Staphylococcus haemolyticus (GC 4546) (Staphylococcus sp.; strain GC 4546): 8 µg/mL (≈ 5.21 µM)

Reference: patent publication US6914045B2, “Glycopeptide antibiotics” (Wyeth Holdings Corporation, priority 2001, dated 2005)
